Experimental data taken from paper PMC7023430, “4-Aminobenzoic Acid Derivatives: Converting Folate Precursor to Antimicrobial and Cytotoxic Agents” (Biomolecules, 2019).
≈ marks a conversion by molar mass, not a printed value. Like-named read-outs stand apart in the source and are kept apart here.

How the values were obtained:
HepG2 cells = test: Cytotoxicity, CellTiter 96 assay; assay type: cell-based, human; conditions: 24 h incubation
Procedure: HepG2, human hepatocellular carcinoma cells (ATCC HB-8065; passage 5–8) purchased from Health Protection Agency Culture Collections (ECACC, Salisbury, UK) were cultured in Minimum Essentials Eagle Medium supplemented with 10% fetal bovine serum, 1% L-glutamine solution and non-essential amino acid solution (Sigma-Aldrich, St. Louis, MO, USA) in a humidified atmosphere containing 5% CO2 at 37 °C. For subculturing, the cells were harvested after trypsin/EDTA (Sigma-Aldrich, St. Louis, USA) treatment at 37 °C. To evaluate cytotoxicity, the cells treated with the tested substances were used as experimental groups whereas untreated HepG2 cells served as control groups.
The cells were seeded in a density of 10 000 cells per well in a 96-well plate. The following day the cells were treated with each of the tested substances dissolved in DMSO (maximal incubation concentration of DMSO was 1% v/v). The tested substances were prepared at different incubation concentrations in triplicates according to their solubility. Simultaneously, the controls representing 100% cell viability, 0% cell viability (the cells treated with 10% DMSO), no cell control and vehiculum controls were also involved in triplicates. After 24 h incubation in a humidified atmosphere containing 5% CO2 at 37 °C, the reagent from the kit CellTiter 96 AQueous One Solution Cell Proliferation Assay (CellTiter 96; Promega, Fitchburg, WI, USA) was added. After 2 h incubation at 37 °C absorbance of samples was recorded at 490 nm (TECAN, Infinita M200, Grödig, Austria). A standard toxicological parameter IC50 was calculated by nonlinear regression from a semilogarithmic plot of incubation concentration versus percentage of absorbance relative to untreated controls using GraphPad Prism software (version 6; GraphPad Software, Inc., La Jolla, CA, USA).
The CellTiter 96 assay used is based on the reduction of tetrazolium dye in living cells to formazan, which is then determined colorimetrically. This reduction is related to availability of NADH or NADPH. The decline in levels of these metabolically important compounds in the cell causes that the production of formazan is reduced. For quantitative comparison of cytotoxicity, the parameter IC50 was used.

[1] = tested on: Candida albicans ATCC 44859; test: Antifungal microdilution broth method, C. albicans; assay type: cell-based
Procedure: (§1) The antifungal properties were evaluated against five yeast strains, namely: Candida albicans ATCC 44859, Candida tropicalis 156, Candida krusei […], Candida glabrata 20/I, Trichosporon […] 1188 and three strains of filamentous fungi: Aspergillus fumigatus 231, Lichtheimia corymbifera 272, and Trichophyton interdigitale 445. A microdilution broth method was performed according to EUCAST II, III instructions with slight modifications. Briefly, tested compounds were dissolved in DMSO and diluted in a twofold manner with RPMI-1640 medium with L-glutamine, supplemented with 2% glucose (w/v) and buffered to pH 7.0 with 3 morpholinopropane-1-sulfonic acid (all components were purchased from Sigma-Aldrich, USA). […] Positive controls consisted of test microbe solely, while negative controls consisted of medium and DMSO. Internal quality control was included too. Visual inspection was used for MIC endpoints evaluation. The experiments were conducted in duplicates. For the results to be valid, the difference in MIC determined from two parallel measurements must not be greater than one step on the dilution scale. PABA and triazole antimycotic drug fluconazole were involved as the reference compounds.

Candida tropicalis 156 = test: Antifungal microdilution broth method, C. tropicalis; assay type: cell-based
Procedure: as §1

Candida krusei E28 = test: Antifungal microdilution broth method, C. krusei; assay type: cell-based; conditions: Pichia kudriavzevii
Procedure: as §1

Candida glabrata 20/I = test: Antifungal microdilution broth method, C. glabrata; assay type: cell-based; conditions: Nakaseomyces glabratus
Procedure: as §1

Trichosporon asahii 1188 = test: Antifungal microdilution broth method, T. asahii; assay type: cell-based
Procedure: as §1

[2] = tested on: Aspergillus fumigatus 231; test: Antifungal microdilution broth method, A. fumigatus; assay type: cell-based
Procedure: as §1

[3] = tested on: Lichtheimia corymbifera 272; test: Antifungal microdilution broth method, L. corymbifera; assay type: cell-based
Procedure: as §1

[4] = tested on: Trichophyton interdigitale 445; test: Antifungal microdilution broth method, T. interdigitale; assay type: cell-based
Procedure: as §1

[5] = tested on: Mycobacterium tuberculosis H37Rv (331/88); test: Antimycobacterial micromethod in Šula's medium, M. tuberculosis; assay type: cell-based
[6] = tested on: Mycobacterium avium 330/88; test: Antimycobacterial micromethod in Šula's medium, M. avium; assay type: cell-based
[7] = tested on: Mycobacterium kansasii 235/80; test: Antimycobacterial micromethod in Šula's medium, M. kansasii 235/80; assay type: cell-based
[8] = tested on: M. kansasii 6509/96 (clinical isolate); test: Antimycobacterial micromethod in Šula's medium, M. kansasii 6509/96; assay type: cell-based; conditions: Mycobacterium kansasii
[9] = tested on: Escherichia coli ATCC 25922, CCM 3954; test: Antibacterial microdilution broth method, E. coli; assay type: cell-based
[10] = tested on: Pseudomonas aeruginosa ATCC 27853, CCM 3955; test: Antibacterial microdilution broth method, P. aeruginosa; assay type: cell-based; conditions: P. aeruginosa
[11] = tested on: methicillin-resistant Staphylococcus aureus ATCC 43300, CCM 4750 (MRSA); test: Antibacterial microdilution broth method, MRSA; assay type: cell-based
[12] = tested on: Staphylococcus epidermidis H 6966/08; test: Antibacterial microdilution broth method, S. epidermidis; assay type: cell-based; conditions: S. epidermidis
[13] = tested on: Enterococcus faecalis ATCC 29212, CCM 4224; test: Antibacterial microdilution broth method, E. faecalis; assay type: cell-based
[14] = tested on: ESBL-positive Klebsiella pneumoniae J 14368/08; conditions: ESBL-positive K. pneumoniae
[15] = tested on: Klebsiella pneumoniae D 11750/08; test: Antibacterial microdilution broth method, K. pneumoniae; conditions: K. pneumoniae D 11750/08
[16] = 24 h incubation, read-out: MIC EC 24 h
[17] = 48 h incubation, read-out: MIC EC 48 h
[18] = 24 h incubation, read-out: MIC PA 24 h
[19] = 48 h incubation, read-out: MIC PA 48 h

## N.N.[Cl][Pt][Cl] [Cisplatin, cisplatin, reference compound]
HepG2 cells
  IC50: 21.3 µM

## OC(Cn1cncn1)(Cn1cncn1)c1ccc(F)cc1F [FLU, fluconazole, reference compound]
[1]; ATCC44859, 24 h, fluconazole values mean MIC50, read-out: MIC50 CA 24 h
  MIC50: 0.24 µM (≈ 0.0735 µg/mL)
[1]; ATCC44859, 48 h, fluconazole values mean MIC50, read-out: MIC50 CA 48 h
  MIC50: 0.24 µM (≈ 0.0735 µg/mL)
Candida tropicalis 156; 24 h, fluconazole values mean MIC50, read-out: MIC50 CT 24 h
  MIC50: > 500 µM
Candida tropicalis 156; 48 h, fluconazole values mean MIC50, read-out: MIC50 CT 48 h
  MIC50: > 500 µM
Candida krusei E28; 24 h, fluconazole values mean MIC50, read-out: MIC50 CK 24 h
  MIC50: 125 µM (≈ 38.3 µg/mL)
Candida krusei E28; 48 h, fluconazole values mean MIC50, read-out: MIC50 CK 48 h
  MIC50: 250 µM (≈ 76.6 µg/mL)
Candida glabrata 20/I; 24 h, fluconazole values mean MIC50, read-out: MIC50 CG 24 h
  MIC50: 31.2 µM (≈ 9.57 µg/mL)
Candida glabrata 20/I; 48 h, fluconazole values mean MIC50, read-out: MIC50 CG 48 h
  MIC50: 500 µM (≈ 153 µg/mL)
Trichosporon asahii 1188; 24 h, fluconazole values mean MIC50, read-out: MIC50 TA 24 h
  MIC50: 250 µM (≈ 76.6 µg/mL)
Trichosporon asahii 1188; 48 h, fluconazole values mean MIC50, read-out: MIC50 TA 48 h
  MIC50: 500 µM (≈ 153 µg/mL)
[2]; 24 h, fluconazole values mean MIC50, read-out: MIC50 AF 24 h
  MIC50: > 500 µM
[2]; 48 h, fluconazole values mean MIC50, read-out: MIC50 AF 48 h
  MIC50: > 500 µM
[3]; 24 h, fluconazole values mean MIC50, read-out: MIC50 LC 24 h
  MIC50: > 500 µM
[3]; 48 h, fluconazole values mean MIC50, read-out: MIC50 LC 48 h
  MIC50: > 500 µM
[4]; 72 h, fluconazole values mean MIC50, read-out: MIC50 TI 72 h
  MIC50: 7.81 µM (≈ 2.39 µg/mL)
[4]; 120 h, fluconazole values mean MIC50, read-out: MIC50 TI 120 h
  MIC50: 125 µM (≈ 38.3 µg/mL)

## NNC(=O)c1ccncc1 [INH, isoniazid, reference compound]
[5]; 336 h, 14 days incubation at 37 °C, read-out: MIC Mtb. 331/88 14 d
  MIC: 0.5 µM (≈ 0.0686 µg/mL)
[5]; 504 h, 21 days incubation at 37 °C, read-out: MIC Mtb. 331/88 21 d
  MIC: 1 µM (≈ 0.137 µg/mL)
[6]; 330/88, 336 h, 14 days incubation at 37 °C, read-out: MIC M. avium 330/88 14 d
  MIC: > 250 µM
[6]; 330/88, 504 h, 21 days incubation at 37 °C, read-out: MIC M. avium 330/88 21 d
  MIC: > 250 µM
[7]; 235/80, 168 h, 7 days incubation at 37 °C, read-out: MIC M. kansasii 235/80 7 d
  MIC: > 250 µM
[7]; 235/80, 336 h, 14 days incubation at 37 °C, read-out: MIC M. kansasii 235/80 14 d
  MIC: > 250 µM
[7]; 235/80, 504 h, 21 days incubation at 37 °C, read-out: MIC M. kansasii 235/80 21 d
  MIC: > 250 µM
[8]; 168 h, 7 days incubation at 37 °C, read-out: MIC M. kansasii 6509/96 7 d
  MIC: 8 µM (≈ 1.1 µg/mL)
[8]; 336 h, 14 days incubation at 37 °C, read-out: MIC M. kansasii 6509/96 14 d
  MIC: 8 µM (≈ 1.1 µg/mL)
[8]; 504 h, 21 days incubation at 37 °C, read-out: MIC M. kansasii 6509/96 21 d
  MIC: 8 µM (≈ 1.1 µg/mL)

## NC[C@@H]1O[C@H](O[C@H]2[C@@H](O)[C@H](O[C@@H]3[C@@H](O)[C@H](N)C[C@H](N)[C@H]3O[C@H]3O[C@H](CN)[C@@H](O)[C@H](O)[C@H]3N)O[C@@H]2CO)[C@H](N)[C@@H](O)[C@@H]1O [NEO, neomycin, reference compound]
[9]; [16]
  MIC: 3.9 µM (≈ 2.4 µg/mL)
[9]; [17]
  MIC: 3.9 µM (≈ 2.4 µg/mL)
[10]; [18]
  MIC: 7.81 µM (≈ 4.8 µg/mL)
[10]; [19]
  MIC: 15.62 µM (≈ 9.6 µg/mL)

## bacitracin [reference compound]
[11]; 24 h incubation, read-out: MIC MRSA 24 h
  MIC: 15.62 µM
[11]; 48 h incubation, read-out: MIC MRSA 48 h
  MIC: 15.62 µM
[12]; 24 h incubation, read-out: MIC SE 24 h
  MIC: 15.62 µM
[12]; 48 h incubation, read-out: MIC SE 48 h
  MIC: 31.25 µM
[13]; 24 h incubation, read-out: MIC EF 24 h
  MIC: 15.62 µM
[13]; 48 h incubation, read-out: MIC EF 48 h
  MIC: 62.5 µM
[9]; [16]
  MIC: >500 µM
[9]; [17]
  MIC: >500 µM
[10]; [18]
  MIC: >500 µM
[10]; [19]
  MIC: >500 µM
[14]; 24 h incubation
  MIC KP-E 24 h: >500 µM
[14]; 48 h incubation
  MIC KP-E 48 h: >500 µM
[15]; 24 h incubation
  MIC KP 24 h: >500 µM
[15]; 48 h incubation
  MIC KP 48 h: >500 µM
